Reference: patent US9326993B2, “Treatment of pulmonary and pleural fibrosis using HSP27 inhibitors” (ONCOGENEX TECHNOLOGIES INC., priority 2011, dated 2016)

Tests used:
mesothelial Met-5A cells = test: Scratch test (migration) on Met-5A cells after rTGF-β1; type: cell-based, human; details: cells treated with rTGF-β1
Experimental: (§1) HSP27 siRNA were purchased from applied bios system (Courtaboeuf, France). The sense and antisense sequence were respectively: 5′-GUUCAAAGCAACCACCUGUtt-3 (SEQ ID No: 4)′ and 5′-ACAGGUGGUUGCUUUGAACtt-3′. (SEQ ID No: 5). They were used at a concentration of 50 nM. SiRNA were transfected using INTERFERin (polyplus, Illkirch, France) following the manufacturer recommendations. 5-6 hours after transfection medium were changed and cells were treated or not with 10 ng/ml TGF-β1 for 12, 24 or 48 hours. Seq ID No. 3 was used as a random control oligonucleotide.
Therefore, HSP27 inhibition blocked this all well known features of EMT induced by TGF-β1 in cultured cells. This corresponded to HSP27 expression levels (FIG. 3G).

epithelial A549 cells = test: rTGF-β1-induced EMT in A549 cells; type: cell-based, human; details: siRNA 50 nM, rTGF-β1 10 ng/ml
Experimental: (§2) Mesothelial rat established cell line 4/4 RM4 cells (American Type Culture Collection—ATCC—Rockville, Md.) were seeded in Ham's F10 (Lonza), with FBS 15%. Mesothelial human established cell line MET-5A (ATCC) were seeded in Medium 199 (lonza), 1% L-glutamine, 1% penicillin-streptomycin with 10% FBS. Epithelial human cell line A549 cells (ATCC) and were seeded in Ham's F10 (lonza) with 10% FBS.
(§3) For EMT induction and analysis, all the different cells were exposed to their respective medium containing 10 ng/ml recombinant (r)TGF-β1 (R&D system, Lille, France) for 6, 12, 24, or 48 hours.
as §1, with “Seq ID No. 3 was used as a random control oligonucleotide.” left out
(§4) Total RNA was extracted using TRIzol (Invitrogen, Cergy Pontoise, France) from MET-5A and A549 cells treated or not with rTGF-β1 12 or 24 hours and transfected or not by HSP27 siRNA or plasmid encoding HSP27. […] Quantitative RT-PCR was performed on the cDNA using the SYBR green master mix (promega, Charbonnieres, France). […]

[1] = test system: human mesothelial Met-5A cells; test: rTGF-β1-induced EMT in Met-5A cells (western blot, RT-PCR); type: cell-based; details: siRNA 50 nM, rTGF-β1 10 ng/ml
Experimental: as §2, §3, §1
Protein extraction was made using triton X 100 during 30 min at 4° C., vortexing every 10 min. Protein dosage is made with the modified lowry kit (Biorad, Marne-la-Coquette, France). Equal amounts of protein (30-50 μg) were electrophoresed through 8 to 12% SDS polyacrylamide gels. The separate protein bands were transferred onto a PVDF membrane. The non-specific sites were saturated with a solution of PBS-tween 0.1%, nonfat milk 8%. Membranes were incubated with primary Abs over night at 4° C. Secondary Abs IgG linked to HRP (HorseRadish Peroxidase, Jackson ImmunoResearch Laboratories, PA, USA) were used at a concentration of 1/5000. Enhanced ChemiLuminescent substrat (ECL, santa cruz biotechnology, CA, USA) was used to detect the protein of interest. […]
as §4

Substance: HSP27 siRNA: siRNA, sense 5′-GUUCAAAGCAACCACCUGUtt-3′ (SEQ ID No: 4), antisense 5′-ACAGGUGGUUGCUUUGAACtt-3′ (SEQ ID No: 5) (sense GUUCAAAGCAACCACCUGUTT; antisense ACAGGUGGUUGCUUUGAACTT; chemistry not given here; listed as Homo sapiens)
- migration capacity in scratch test (mesothelial Met-5A cells): much weaker migration
- wound recovery by 48 h (mesothelial Met-5A cells; 48 h): still largely unrecovered
- rTGF-β1 induced α-SMA (epithelial A549 cells): inhibits
- rTGF-β1 induced α-SMA ([1]; Met-5A cells): inhibits
- rTGF-β1-induced E-cadherin down-regulation ([1]; 48 h): blocks
- rTGF-β1-induced α-SMA upregulation ([1]; 48 h): blocks
